The experiment in a line: Inhibition of body weight gain in high fat diet exposed mice. The note with it: for weight gain in relation to that of the control group fed with standard laboratory chow: excess over chow control.

The text below walks through data of patent publication US20090281143A1, “Dose Reduction of a Cannabinoid CB1 Receptor Antagonist in the Treatment of Overweight or Obesity” (N-Gene Research Laboratories, Inc., priority 2007, published 2009).

Description: OF-1 female mice weighing about 18-20 g at the beginning of the experiment were used in the study. […] The high fat diet consisted of palatable food that contained 50% fat. The group on standard laboratory chow was also treated with vehicle. Treatment was performed with all of the drugs, orally, at 5 ppm. The weight of the animals was measured weekly.

For `Cc1c(C(=O)NN2CCCCC2)nn(-c2ccc(Cl)cc2Cl)c1-c1ccc(Cl)cc1` [rimonabant, N-piperidino-5-(4-chlorophenyl)-1-(2,4-dichlorophenyl)-4-methylpyrazole-3-carboxamide], the “Body weight gain in g after 2 weeks” value came out at 10.6 g (rimonabant 2 mg/kg daily oral, after 2 weeks) and 10.2 g (rimonabant 10 mg/kg daily oral, after 2 weeks). In addition, the “Body weight gain in g after 3 weeks” value reads like this: (rimonabant 2 mg/kg daily oral, after 3 weeks) 14.1 g; (rimonabant 10 mg/kg daily oral, after 3 weeks) 13.0 g. Besides, the “weight gain in relation to that of the control group fed with standard laboratory chow” value by setting is: (rimonabant 2 mg/kg, after 2 weeks) 22%; (rimonabant 2 mg/kg, after 3 weeks) 33%; (rimonabant 10 mg/kg, after 2 weeks) 17%; (rimonabant 10 mg/kg, after 3 weeks) 22.6%.
